For 28 compounds, IC50 and DC50 results are on record in patent US20250171420A1 (Monte Rosa Therapeutics, Inc., priority 2022, published 2025).

One experiment has as its target CRBN/DDB1 (Homo sapiens, UniProt Q96SW2). The experiment is described as follows: HTRF binding assay (displacement of Cy5-thalidomide probe from CRBN/DDB1). The note with it: CRBN/DDB1 2.5 nM, Cy5-Thalidomide 100 nM, 30 min; geometric mean; read-out: HTRF_Thali_Disp_DR_geo_IC50. The essentials:
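HTRF displacement of Cy5-thalidomide (100 nM) from His-tagged CRBN/DDB1 (2.5 nM) with anti-His Tb cryptate in 20 mM HEPES, 20 mM NaCl, 0.2 mM TCEP, 0.2 mM EDTA, 0.005% Tween20. 10-point 1:3 series, 30 min ambient. 665/620 nm ratio fitted 4-parameter for IC50; Ki by Cheng-Prusoff from geometric-mean IC50.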

For another experiment, the target named is T1, CK1α (Homo sapiens, UniProt P48729).
T1 construct: HEK293 clonal lines with CRISPR KI HiBiT tag on CSNK1A1
T1 sequence (P48729 whole entry): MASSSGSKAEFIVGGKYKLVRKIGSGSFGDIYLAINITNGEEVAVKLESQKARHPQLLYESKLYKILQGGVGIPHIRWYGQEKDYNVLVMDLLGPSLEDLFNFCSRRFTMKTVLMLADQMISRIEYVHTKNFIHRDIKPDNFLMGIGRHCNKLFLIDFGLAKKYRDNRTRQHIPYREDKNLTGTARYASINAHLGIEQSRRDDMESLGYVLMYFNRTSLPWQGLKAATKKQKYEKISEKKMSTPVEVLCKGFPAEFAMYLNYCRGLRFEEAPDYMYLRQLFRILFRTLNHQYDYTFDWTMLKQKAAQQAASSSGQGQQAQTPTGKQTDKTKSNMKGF
T1 sequence (Q96SW2 whole entry, further chain): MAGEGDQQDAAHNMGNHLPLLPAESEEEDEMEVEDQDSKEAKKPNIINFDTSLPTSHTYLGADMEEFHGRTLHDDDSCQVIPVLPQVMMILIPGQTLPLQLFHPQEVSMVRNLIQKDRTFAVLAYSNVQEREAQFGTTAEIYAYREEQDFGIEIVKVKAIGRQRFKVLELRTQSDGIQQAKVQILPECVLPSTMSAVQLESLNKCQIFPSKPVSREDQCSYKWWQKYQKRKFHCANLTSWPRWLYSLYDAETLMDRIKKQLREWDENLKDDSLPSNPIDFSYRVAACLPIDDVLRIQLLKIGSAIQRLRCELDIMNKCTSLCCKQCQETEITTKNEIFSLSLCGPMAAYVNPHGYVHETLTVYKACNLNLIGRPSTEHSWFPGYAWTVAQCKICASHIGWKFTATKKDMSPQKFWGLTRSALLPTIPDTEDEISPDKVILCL
T1 sequence (Q16531 2-1140 partner limits assumed): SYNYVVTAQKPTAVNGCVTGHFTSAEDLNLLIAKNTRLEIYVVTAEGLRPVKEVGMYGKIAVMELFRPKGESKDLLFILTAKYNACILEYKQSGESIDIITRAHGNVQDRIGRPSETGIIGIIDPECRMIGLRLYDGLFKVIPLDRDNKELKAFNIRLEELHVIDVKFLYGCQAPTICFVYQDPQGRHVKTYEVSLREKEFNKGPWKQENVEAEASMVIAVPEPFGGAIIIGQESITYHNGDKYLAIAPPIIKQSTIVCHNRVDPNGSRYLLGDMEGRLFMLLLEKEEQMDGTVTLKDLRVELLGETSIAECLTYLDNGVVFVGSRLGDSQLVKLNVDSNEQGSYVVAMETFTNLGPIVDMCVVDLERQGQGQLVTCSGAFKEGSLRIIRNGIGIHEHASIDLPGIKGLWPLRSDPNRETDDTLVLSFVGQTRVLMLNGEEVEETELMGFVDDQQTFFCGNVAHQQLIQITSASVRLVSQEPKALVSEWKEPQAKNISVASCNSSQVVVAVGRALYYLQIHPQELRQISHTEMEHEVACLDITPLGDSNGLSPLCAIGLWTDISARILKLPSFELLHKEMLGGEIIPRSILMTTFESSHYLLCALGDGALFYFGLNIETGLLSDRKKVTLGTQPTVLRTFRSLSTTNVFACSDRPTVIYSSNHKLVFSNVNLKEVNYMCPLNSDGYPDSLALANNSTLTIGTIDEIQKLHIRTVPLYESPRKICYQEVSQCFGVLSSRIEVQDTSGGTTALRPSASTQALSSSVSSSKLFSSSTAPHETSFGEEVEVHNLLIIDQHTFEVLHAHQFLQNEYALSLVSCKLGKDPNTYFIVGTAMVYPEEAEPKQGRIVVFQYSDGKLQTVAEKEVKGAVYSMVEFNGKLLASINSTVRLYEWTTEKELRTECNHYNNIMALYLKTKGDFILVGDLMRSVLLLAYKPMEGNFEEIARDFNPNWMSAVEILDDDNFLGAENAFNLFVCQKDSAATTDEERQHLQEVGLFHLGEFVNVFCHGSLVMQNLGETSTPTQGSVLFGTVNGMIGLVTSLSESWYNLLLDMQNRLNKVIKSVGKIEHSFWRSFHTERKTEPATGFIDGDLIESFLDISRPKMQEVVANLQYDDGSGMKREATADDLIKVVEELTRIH
The experiment is described as follows: CK1α NanoBit Assay (HiBiT-tagged CSNK1A1, HEK293 clonal lines). To be noted: HEK293 HiBiT-CSNK1A1/LgBiT cells, 24 h incubation. In kind it is cell-based. In a few lines: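 HEK293 clones carrying a CRISPR knock-in HiBiT tag on CSNK1A1 and stably expressing LgBiT are treated with compound for 24 hours at 37° C, 5% CO2, then read by luminescence. Response is normalized as 100*(S−N)/(P−N) against plate negative and positive controls, and DC50 values are derived.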
(With HiBiT, luminescence reflects the tagged protein that the partner subunit can reach.)

SMILES strings stand for the structures. Some results are limits rather than exact numbers.

Sequence of CRBN/DDB1 (Q96SW2 whole entry, species assumed): as the sequence (Q96SW2 whole entry, further chain) above
Sequence of CRBN/DDB1 (Q16531 whole entry partner, species assumed): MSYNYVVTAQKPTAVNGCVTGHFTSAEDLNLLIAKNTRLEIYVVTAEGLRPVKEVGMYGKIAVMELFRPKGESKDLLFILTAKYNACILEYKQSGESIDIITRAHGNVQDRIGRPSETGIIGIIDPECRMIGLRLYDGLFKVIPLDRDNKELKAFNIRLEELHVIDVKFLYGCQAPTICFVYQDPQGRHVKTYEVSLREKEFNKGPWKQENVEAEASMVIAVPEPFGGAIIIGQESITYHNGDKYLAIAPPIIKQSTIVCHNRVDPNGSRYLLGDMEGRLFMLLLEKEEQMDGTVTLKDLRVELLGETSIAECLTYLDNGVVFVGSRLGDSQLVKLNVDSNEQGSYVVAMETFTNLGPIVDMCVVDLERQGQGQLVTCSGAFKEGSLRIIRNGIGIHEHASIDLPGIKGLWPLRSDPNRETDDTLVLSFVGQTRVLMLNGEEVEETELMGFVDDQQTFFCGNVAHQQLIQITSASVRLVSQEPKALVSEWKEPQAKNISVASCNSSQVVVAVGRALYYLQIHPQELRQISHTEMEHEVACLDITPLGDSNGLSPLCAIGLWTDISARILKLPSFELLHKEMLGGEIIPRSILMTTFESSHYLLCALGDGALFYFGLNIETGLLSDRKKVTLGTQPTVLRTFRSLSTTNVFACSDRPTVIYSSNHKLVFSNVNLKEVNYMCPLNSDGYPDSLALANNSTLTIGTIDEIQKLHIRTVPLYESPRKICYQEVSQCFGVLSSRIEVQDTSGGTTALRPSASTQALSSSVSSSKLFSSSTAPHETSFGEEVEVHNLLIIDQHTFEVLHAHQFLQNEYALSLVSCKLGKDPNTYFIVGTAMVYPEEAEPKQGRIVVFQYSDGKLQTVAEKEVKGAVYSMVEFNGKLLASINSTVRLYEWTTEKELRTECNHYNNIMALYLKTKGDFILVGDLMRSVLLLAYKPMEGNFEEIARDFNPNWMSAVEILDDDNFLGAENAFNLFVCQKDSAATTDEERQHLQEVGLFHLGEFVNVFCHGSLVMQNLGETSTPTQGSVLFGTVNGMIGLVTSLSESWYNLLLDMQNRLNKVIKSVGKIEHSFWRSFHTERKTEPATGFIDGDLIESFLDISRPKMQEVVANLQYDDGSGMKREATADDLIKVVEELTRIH

`COC[C@@H]1Cc2cc(C(F)(F)F)ccc2N1C(=O)Nc1ccc2c(c1)CN(C1CCC(=O)NC1=O)C2=O` (stereo partly drawn) [Compound 318, (2S)—N-(2-(2,6-dioxopiperidin-3-yl)-1-oxoisoindolin-5-yl)-2-(methoxymethyl)-5-(trifluoromethyl)indoline-1-carboxamide]: at CRBN/DDB1, the IC50 is 100 to 1000 nM. Moreover, the DC50 on CK1α is < 0.1 µM.
The corresponding values for `O=C1CCC(N2Cc3cc(NC(=O)N4CCOc5ccccc54)ccc3C2=O)C(=O)N1` (centres unmarked) [Compound 285, N-(2-(2,6-dioxopiperidin-3-yl)-1-oxoisoindolin-5-yl)-2H-benzo[b][1,4]oxazine-4(3H)-carboxamide] are 100 to 1000 nM and 0.1 to 1 µM.
The corresponding values for `CN(C)C[C@@H]1Cc2ccccc2N1C(=O)Nc1ccc2c(c1)CN(C1CCC(=O)NC1=O)C2=O` (stereo partly drawn) [Compound 323, (2S)-2-((dimethylamino)methyl)-N-(2-(2,6-dioxopiperidin-3-yl)-1-oxoisoindolin-5-yl)indoline-1-carboxamide] are 100 to 1000 nM and 0.1 to 1 µM.
The corresponding values for `CC1Cc2cc(C(F)(F)F)ncc2N1C(=O)Nc1ccc2c(c1)CN(C1CCC(=O)NC1=O)C2=O` (centres unmarked) [Compound 353, N-(2-(2,6-dioxopiperidin-3-yl)-1-oxoisoindolin-5-yl)-2-methyl-5-(trifluoromethyl)-2,3-dihydro-1H-pyrrolo[2,3-c]pyridine-1-carboxamide] are 100 to 1000 nM and < 0.1 µM.
As to `O=C1CCC(N2Cc3cc(NC(=O)N4c5ccccc5CC45COC5)ccc3C2=O)C(=O)N1` (centres unmarked) [Compound 322, N-(2-(2,6-dioxopiperidin-3-yl)-1-oxoisoindolin-5-yl)spiro[indoline-2,3′-oxetane]-1-carboxamide], on CRBN/DDB1, the IC50 was 100 to 1000 nM. The DC50 at CK1α is < 0.1 µM.
For `COCC1c2ccc(C)cc2CN1C(=O)Nc1ccc2c(c1)CN(C1CCC(=O)NC1=O)C2=O` (centres unmarked) [Compound 331, N-(2-(2,6-dioxopiperidin-3-yl)-1-oxoisoindolin-5-yl)-1-(methoxymethyl)-5-methylisoindoline-2-carboxamide], the IC50 at CRBN/DDB1 lay in the range of 100 to 1000 nM. For the same compound, on CK1α, the DC50 was < 0.1 µM.
On to `CC1c2ccccc2CCN1C(=O)Nc1ccc2c(c1)CN(C1CCC(=O)NC1=O)C2=O` (centres unmarked) [Compound 216, N-(2-(2,6-dioxopiperidin-3-yl)-1-oxoisoindolin-5-yl)-1-methyl-3,4-dihydroisoquinoline-2(1H)-carboxamide], for which the IC50 on CRBN/DDB1 is 100 to 1000 nM. Further, at CK1α, the DC50 was < 0.1 µM.
The corresponding values for `O=C1CCC(N2Cc3cc(NC(=O)N4c5ccccc5C[C@H]4COC(F)(F)F)ccc3C2=O)C(=O)N1` (stereo partly drawn) [Compound 311, (2S)—N-(2-(2,6-dioxopiperidin-3-yl)-1-oxoisoindolin-5-yl)-2-((trifluoromethoxy)methyl)indoline-1-carboxamide] are 100 to 1000 nM and < 0.1 µM.
The corresponding values for `C[C@@H]1Cc2cccc(F)c2N1C(=O)Nc1ccc2c(c1)CN(C1CCC(=O)NC1=O)C2=O` (stereo partly drawn) [Compound 350, (2R)—N-(2-(2,6-dioxopiperidin-3-yl)-1-oxoisoindolin-5-yl)-7-fluoro-2-methylindoline-1-carboxamide] are 100 to 1000 nM and < 0.1 µM.
The corresponding values for `CC1CN(C(=O)Nc2ccc3c(c2)CN(C2CCC(=O)NC2=O)C3=O)Cc2ccccc21` (centres unmarked) [Compound 191, N-(2-(2,6-dioxopiperidin-3-yl)-1-oxoisoindolin-5-yl)-4-methyl-3,4-dihydroisoquinoline-2(1H)-carboxamide] are 100 to 1000 nM and < 0.1 µM.
Regarding `COCC1c2ccc(C(F)(F)F)cc2CN1C(=O)Nc1ccc2c(c1)CN(C1CCC(=O)NC1=O)C2=O` (centres unmarked) [Compound 324, N-(2-(2,6-dioxopiperidin-3-yl)-1-oxoisoindolin-5-yl)-1-(methoxymethyl)-5-(trifluoromethyl)isoindoline-2-carboxamide], the IC50 on CRBN/DDB1 fell in the range of 100 to 1000 nM. Besides, the DC50 on CK1α was < 0.1 µM.
The corresponding values for `Cc1cc2c(cc1C)N(C(=O)Nc1ccc3c(c1)CN(C1CCC(=O)NC1=O)C3=O)CC2` (centres unmarked) [Compound 171, N-(2-(2,6-dioxopiperidin-3-yl)-1-oxoisoindolin-5-yl)-5,6-dimethylindoline-1-carboxamide] are 100 to 1000 nM and < 0.1 µM.
Turning to `O=C1CCC(N2Cc3cc(NC(=O)N4CCc5cc(C6CCOC6)ccc54)ccc3C2=O)C(=O)N1` (centres unmarked) [Compound 345, N-(2-(2,6-dioxopiperidin-3-yl)-1-oxoisoindolin-5-yl)-5-(tetrahydrofuran-3-yl)indoline-1-carboxamide], at CRBN/DDB1, the IC50 is < 100 nM. In addition, at CK1α, the DC50 is < 0.1 µM.
For `O=C1CCC(N2Cc3cc(NC(=O)N4CCc5ccc(C6CC6)cc54)ccc3C2=O)C(=O)N1` (centres unmarked) [Compound 291, 6-cyclopropyl-N-(2-(2,6-dioxopiperidin-3-yl)-1-oxoisoindolin-5-yl)indoline-1-carboxamide] the same measures were 100 to 1000 nM and < 0.1 µM.
`O=C1CCC(N2Cc3cc(NC(=O)N4CCc5cc(Cl)ccc54)ccc3C2=O)C(=O)N1` (centres unmarked) [Compound 197, 5-chloro-N-(2-(2,6-dioxopiperidin-3-yl)-1-oxoisoindolin-5-yl)indoline-1-carboxamide]: on CRBN/DDB1, the IC50 was > 1000 nM. Further, the DC50 on CK1α is < 0.1 µM.
For `C[C@@H]1Cc2ccccc2N1C(=O)Nc1cc2c(cc1F)C(=O)N(C1CCC(=O)NC1=O)C2` (stereo partly drawn) [Compound 293, (2R)—N-(2-(2,6-dioxopiperidin-3-yl)-6-fluoro-1-oxoisoindolin-5-yl)-2-methylindoline-1-carboxamide] the same measures were 100 to 1000 nM and < 0.1 µM.
For `O=C1CCC(N2Cc3cc(NC(=O)N4c5cccc(F)c5CC45COC5)ccc3C2=O)C(=O)N1` (centres unmarked) [Compound 304, N-(2-(2,6-dioxopiperidin-3-yl)-1-oxoisoindolin-5-yl)-4-fluorospiro[indoline-2,3′-oxetane]-1-carboxamide] the same measures were 100 to 1000 nM and < 0.1 µM.
The corresponding values for `COC[C@H]1Cc2cc(C(F)(F)F)ncc2N1C(=O)Nc1ccc2c(c1)CN(C1CCC(=O)NC1=O)C2=O` (stereo partly drawn) [Compound 295, (2R)—N-(2-(2,6-dioxopiperidin-3-yl)-1-oxoisoindolin-5-yl)-2-(methoxymethyl)-5-(trifluoromethyl)-2,3-dihydro-1H-pyrrolo[2,3-c]pyridine-1-carboxamide] are 100 to 1000 nM and < 0.1 µM.
As for `COC(C)c1cccc2c1CCN2C(=O)Nc1ccc2c(c1)CN(C1CCC(=O)NC1=O)C2=O` (centres unmarked) [Compound 343, N-(2-(2,6-dioxopiperidin-3-yl)-1-oxoisoindolin-5-yl)-4-(1-methoxyethyl)indoline-1-carboxamide], the IC50 on CRBN/DDB1 is 100 to 1000 nM. The DC50 at CK1α was < 0.1 µM.
For `N#Cc1ccc2c(c1)N(C(=O)Nc1ccc3c(c1)CN(C1CCC(=O)NC1=O)C3=O)CC2` (centres unmarked) [Compound 115, 6-cyano-N-(2-(2,6-dioxopiperidin-3-yl)-1-oxoisoindolin-5-yl)indoline-1-carboxamide] the same measures were 100 to 1000 nM and < 0.1 µM.
Regarding `CC1(C)Cc2ccccc2N1C(=O)Nc1ccc2c(c1)CN(C1CCC(=O)NC1=O)C2=O` (centres unmarked) [Compound 132], at CRBN/DDB1, the IC50 was in the range of 100 to 1000 nM. The DC50 at CK1α is < 0.1 µM.
On to `O=C1CCC(N2Cc3cc(NC(=O)N4CCc5cc(-n6cccn6)ccc54)ccc3C2=O)C(=O)N1` (centres unmarked) [Compound 355], for which, on CRBN/DDB1, the IC50 is < 100 nM. Further, the DC50 at CK1α was < 0.1 µM.
The corresponding values for `COCC1c2cc(C3CC3)ccc2CN1C(=O)Nc1ccc2c(c1)CN(C1CCC(=O)NC1=O)C2=O` (centres unmarked) [Compound 333, 6-cyclopropyl-N-(2-(2,6-dioxopiperidin-3-yl)-1-oxoisoindolin-5-yl)-1-(methoxymethyl)isoindoline-2-carboxamide] are 100 to 1000 nM and < 0.1 µM.
For `O=C1CCC(N2Cc3cc(NC(=O)N4CCc5cc(C6COC6)ccc54)ccc3C2=O)C(=O)N1` (centres unmarked) [Compound 346, N-(2-(2,6-dioxopiperidin-3-yl)-1-oxoisoindolin-5-yl)-5-(oxetan-3-yl)indoline-1-carboxamide] the same measures were < 100 nM and < 0.1 µM.
Turning to `O=C1CC[C@@H](N2Cc3cc(NC(=O)N4c5ccccc5C[C@H]4C(F)(F)F)ccc3C2=O)C(=O)N1` (single isomer, unassigned) [Compound 359], the IC50 on CRBN/DDB1 was > 1000 nM. In addition, the DC50 on CK1α was < 0.1 µM.
For `COC[C@@H]1CN(C(=O)Nc2ccc3c(c2)CN(C2CCC(=O)NC2=O)C3=O)c2ccccc21` (stereo partly drawn) [Compound 328, (3S)—N-(2-(2,6-dioxopiperidin-3-yl)-1-oxoisoindolin-5-yl)-3-(methoxymethyl)indoline-1-carboxamide] the same measures were 100 to 1000 nM and < 0.1 µM.
With `COC[C@H]1Cc2ccccc2N1C(=O)Nc1ccc2c(c1)CN(C1CCC(=O)NC1=O)C2=O` (stereo partly drawn) [Compound 352, (2R)—N-(2-(2,6-dioxopiperidin-3-yl)-1-oxoisoindolin-5-yl)-2-(methoxymethyl)indoline-1-carboxamide], the IC50 on CRBN/DDB1 was 100 to 1000 nM. The DC50 at CK1α was < 0.1 µM.
The corresponding values for `CC1(c2ccccc2)CN(C(=O)Nc2ccc3c(c2)CN(C2CCC(=O)NC2=O)C3=O)C1` (centres unmarked) [Compound 109, N-(2-(2,6-dioxopiperidin-3-yl)-1-oxoisoindolin-5-yl)-3-methyl-3-phenylazetidine-1-carboxamide] are 100 to 1000 nM and 0.1 to 1 µM.
